Measurements taken from patent publication US5552402A, “Five-membered heteroaromatic compounds as 5-HT receptor agonists” (Merck, Sharp & Dohme Ltd., priority 1994, dated 1996).
pEC50: −log10 of the molar value. Structures can show the parent of a compound that is named as a salt.

Biological target: T1, 5-HT1 -like receptor (Oryctolagus cuniculus, UniProt P49144)
T1 construct: contraction of the saphenous vein of New Zealand White rabbits; from tissue; host or cells: saphenous vein of New Zealand White rabbits
Experiment: Agonist activity at 5-HT1-like receptor: contraction of the saphenous vein of New Zealand White rabbits
Conditions: rabbit saphenous vein; from plots of percentage 5-HT (1 μM) response against concentration of agonist; read-out: EC50 (agonist potency, contraction of saphenous vein)
Experimental: The activity of test compounds as agonists of the 5-HT1 -like receptor was measured in terms of their ability to mediate contraction of the saphenous vein of New Zealand White rabbits, using the procedure described in Arch. Pharm., 1990, 342, 111. Agonist potencies were calculated as EC50 values, from plots of percentage 5-HT (1 μM) response against the concentration of the agonist.

T1 sequence (P49144 whole entry): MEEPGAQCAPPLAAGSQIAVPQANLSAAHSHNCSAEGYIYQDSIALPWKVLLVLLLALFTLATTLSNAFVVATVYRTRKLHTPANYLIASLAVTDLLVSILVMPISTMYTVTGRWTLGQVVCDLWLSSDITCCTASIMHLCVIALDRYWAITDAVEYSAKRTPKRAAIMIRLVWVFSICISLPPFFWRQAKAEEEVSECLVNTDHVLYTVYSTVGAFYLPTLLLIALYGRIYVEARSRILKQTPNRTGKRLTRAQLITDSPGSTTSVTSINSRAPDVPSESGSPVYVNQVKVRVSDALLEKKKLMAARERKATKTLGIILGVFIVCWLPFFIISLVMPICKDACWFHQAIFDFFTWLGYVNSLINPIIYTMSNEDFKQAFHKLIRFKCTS

Row | pEC50 | Structure (SMILES)
1 | > 5.30 | c1cc2[nH]cc(CCCN3CCNCC3)c2cc1-n1cnnc1 [Example 4, 1-(3-[5-(1,2,4-Triazol-4-yl)-1H-indol-3-yl]propyl)-4-(H)-piperazine. 3.5 Hydrogen Oxalate]
2 | > 5.30 | CN1CCN(CCCc2c[nH]c3ccc(-n4cnnc4)cc23)CC1 [Example 5, 1-(3-[5-(1,2,4-Triazol-4-yl)-1H-indol-3-yl]propyl)-4-(methyl)piperazine. 3.5 Hydrogen Oxalate Monohydrate]
